Columns and labels:
[1] = test system: dermatological inflammatory diseases and other inflammatory diseases or syndrome; conditions: 10 mM, topical or gargle or spray administration
psoriasis = experiment: Spray of 10 mM NH4Cl solution on psoriasis sites of patient A; assay type: in vivo, human; conditions: 10 mM NH4Cl spray once every 2 days
Text: Photos were taken before and after treatments in indicated time points. FIGS. 1, 2, 3, 4 and 5 illustrated the results of the above-identified protocol used in this study.

furuncles = experiment: Topical NH4Cl in skin moisture lotion to treat furuncles; assay type: in vivo, human; conditions: 10 mM in skin moisture lotion, 3 times a day, after 2-3 days
pain of body = experiment: Topical NH4Cl in skin moisture lotion to reduce pain of body; assay type: in vivo, human; conditions: 10 mM in skin moisture lotion, once a day, after 2-3 days
subcutaneous masses = experiment: Topical NH4Cl in skin moisture lotion to treat subcutaneous masses; assay type: in vivo, human; conditions: 10 mM in skin moisture lotion, once a day, after 2-3 days
acnes or furuncles = experiment: Topical NH4Cl lotion on face to prevent acnes or furuncles; assay type: in vivo, human; conditions: NH4+ 10 mM in skin moisture lotion, topical on face once a week

CC(=O)O.N [ammonium acetate]
effects for dermatological inflammatory diseases (eczema, acnes, psoriasis, furuncles) and other inflammatory diseases or syndrome [1]: excellent effects

Cl.N [NH4Cl, ammonium chloride]
psoriasis on one hand (psoriasis; 2 months, patient A (FIG. 3)): cures psoriasis | psoriasis on both elbows (psoriasis; 3 months, patient A (FIG. 2)): cures psoriasis | psoriasis on the back of the body (psoriasis; 3 months, patient A (FIG. 4)): cure psoriasis | psoriasis on both hands (psoriasis; 3 months, patient A with psoriasis for 3 years (FIG. 1)): cures psoriasis | appearance of psoriasis on feet and both knees (psoriasis; 4 months, patient A (FIG. 5)): improve appearance of psoriasis | furuncles (pain, red, nodule) (furuncles): furuncles were cured | pain of body (pain of body): completed stopped or significantly reduced | subcutaneous masses (subcutaneous masses): masses less than 1 cm would be disappeared | prevention of acnes or furuncles (acnes or furuncles): could prevent acnes or furuncles | effects for dermatological inflammatory diseases (eczema, acnes, psoriasis, furuncles) and other inflammatory diseases or syndrome [1]: excellent effects

N.N.O=S(=O)(O)O [ammonium sulfate]
effects for dermatological inflammatory diseases (eczema, acnes, psoriasis, furuncles) and other inflammatory diseases or syndrome [1]: excellent effects
